Publication PMC4109950, “Novel Small Molecule XPO1/CRM1 Inhibitors Induce Nuclear Accumulation of TP53, Phosphorylated MAPK and Apoptosis in Human Melanoma Cells” (PLoS ONE, 2014)

Legend:
[1] = design: method as in personal communication, Karyopharm Therapeutics, Inc.; details: CD1 mice, oral, 10 mg/kg; ref personal communication, Karyopharm Therapeutics, Inc.; cited from earlier work
CHL-1 [2] = assay: Cellular growth assay (MTS), 72 h; assay type: cell-based, human
Procedure: (§1) Cells were seeded in 96-well plates (2×10^4) in triplicate and allowed to adhere overnight. Fresh media containing KPT-185, KPT-185-trans, KPT-276, or KPT-330 was added to each well at various concentrations (range = 40–10240 nM) and cells were incubated at 37°C/5% CO2 for 72 hours. Cells treated with DMSO (diluent) and untreated cells served as controls. At this time, the percentage of cell growth was evaluated using the MTS assay (CellTiter 96 AQueous Non-Radioactive Cell Proliferation Assay, Promega) and quantified by determining the optical density at 595 nm using a Bio-Rad iMark™ microplate reader. The 4-parameter logistic or Hill model was the assumed dose-response relationship for the in vitro inhibition and cell viability experiments. Nonlinear least squares regression was used to estimate the model parameters and generate 95% confidence intervals for the IC50 estimates. For in vivo experiments, tumor volumes were first log-transformed to meet test assumptions of normality and homoscedasticity. Changes in tumor volumes were analyzed using a two-sample t-test to evaluate the difference from first day of treatment to the last for A375 xenografts (day 17), and from day 1 to day 10 for CHL-1 xenografts as day 10 marks the first mouse sacrificed when 1500 mm^3 tumor volume was reached. ANOVA was used to compare the expression of XPO1 staining among samples from the melanoma tissue core array. The Wilcoxon rank-sum test was used to analyze data comparing growth inhibition and apoptosis of the five metastatic melanoma cell lines to the three melanocyte cell lines.

A375 [3] = assay: Cellular growth assay (MTS), 72 h; assay type: cell-based, human; details: Homo sapiens, A-375, 72 h, A375, 72 hr treatment, read-out: Growth Inhibition IC50
Procedure: as §1

CHL-1 [4] = assay: Apoptosis via Annexin V/PI staining, flow cytometry; assay type: cell-based; details: Homo sapiens, CHL-1, 72 hr treatment
Procedure: (§2) Phosphatidyl serine exposure was assessed in tumor cells and melanocytes by flow cytometry using APC-Annexin V and propidium iodide (PI; BD Pharmingen, San Diego, CA) as previously described. Each analysis was performed utilizing at least 10,000 events. We considered the Annexin V positive cells (early apoptosis) and Annexin V/PI double positive cells (late apoptosis) cells as the apoptotic cell population. The 4-parameter logistic or Hill model was the assumed dose-response relationship for the in vitro inhibition and cell viability experiments. Nonlinear least squares regression was used to estimate the model parameters and generate 95% confidence intervals for the IC50 estimates. For in vivo experiments, tumor volumes were first log-transformed to meet test assumptions of normality and homoscedasticity. Changes in tumor volumes were analyzed using a two-sample t-test to evaluate the difference from first day of treatment to the last for A375 xenografts (day 17), and from day 1 to day 10 for CHL-1 xenografts as day 10 marks the first mouse sacrificed when 1500 mm^3 tumor volume was reached. ANOVA was used to compare the expression of XPO1 staining among samples from the melanoma tissue core array. The Wilcoxon rank-sum test was used to analyze data comparing growth inhibition and apoptosis of the five metastatic melanoma cell lines to the three melanocyte cell lines.

A375 [5] = assay: as above; assay type: cell-based; details: Homo sapiens, A-375, A375, 72 hr treatment
Procedure: as §2

CHL-1 xenografts = assay: Immunohistochemical staining of xenografts; assay type: in vivo, NOD/SCID mice; details: treated one week
Procedure: (§3) All animal studies were conducted under a protocol (2009A0178-R1) approved by The Ohio State University Institutional Animal Care and Use Committee (IACUC). A subcutaneous (s.c.) tumor model of melanoma was employed to determine whether treatment with the orally bioavailable SINE compounds, KPT-276 (preclinical tool compound) or KPT-330 (currently in Phase 1 studies in humans with advanced cancers), would be effective in decreasing tumor growth in vivo. Female NOD/SCID mice (n = 6 mice/group; 6-8 weeks of age; Jackson Laboratory, Bar Harbor, ME) were injected subcutaneously (s.c.) in the right flank with 2×10^6 human A375 or CHL-1 melanoma cells (Day 0). Once tumors were palpable, mice were randomized to one of […] treatment groups: [a] diluent, [b] KPT-276 (75 mg/kg), or [c] KPT-330 (15 mg/kg). All treatments were administered via oral gavage in a volume of 200 µL three times weekly (Monday, Wednesday, Friday). Bi-dimensional tumor measurements were obtained three times weekly using microcalipers. Mice were euthanized and tumors were collected from all animals once diluent-treated tumors reached a volume of 1500 mm^3. For histology studies, a subset of animals (n = 2–3/group) were treated with diluents, KPT-276, or KPT-330 for one week, after which tumors were collected to avoid necrosis. The weights of all animals receiving diluent, KPT-276 or KPT-330 were monitored for dosing and to assess toxicity throughout the study.
(§4) For analysis of XPO1 expression in human samples, an unstained (5 µm) slide of a commercially available tissue microarray (1 mm cores) containing 56 cases of primary melanoma, 20 cases of metastatic melanoma, and 24 cases diagnosed as nevus (US Biomax, Inc., Catalog #ME1004a) was subjected to immunohistochemical analysis using an antibody targeting XPO1 (Santa Cruz H-300, sc-5595, lot # D0110) according to manufacturer's recommendations (1∶50). For mouse studies, tumor xenografts were fixed in formalin, embedded in paraffin, a sectioned at 4 µm with two sections per slide. […] All samples were analyzed in a blinded fashion by an experienced pathologist (Dr. Krista La Perle). Automatic quantification of immunoreactivity in viable portions of xenograft tissue samples and tissue cores segmented with the TMA Lab (Aperio Technologies, Vista, CA) was performed on whole slide images scanned at 40× magnification (ScanScope XT, Aperio Technologies) using the Positive Pixel Count Algorithm in the ImageScope software, as well as the Color Deconvolution and Cytoplasmic algorithms available in the Image Analysis Toolbox (Aperio Technologies).

A375 xenografts = assay: Immunohistochemical staining of xenografts; assay type: in vivo, NOD/SCID mice; details: treated one week
Procedure: as §3, §4

[6] = Body weight of tumor-bearing mice during oral treatment; assay type: in vivo, NOD/SCID mice; details: oral treatment three times weekly, KPT-276 75 mg/kg or KPT-330 15 mg/kg, n = 6
Procedure: as §3, with “For histology studies, a subset of animals (n = 2–3/group) were treated with diluents, KPT-276, or KPT-330 for one week, after which tumors were collected to avoid necrosis.” left out

[7] = test system: human CHL-1 melanoma xenografts; assay: Subcutaneous melanoma xenograft tumor growth; assay type: in vivo, NOD/SCID mice; details: CHL-1 xenograft, oral gavage three times weekly, KPT-276 75 mg/kg (p = 0.0087) or KPT-330 15 mg/kg (p = 0.0002)
Procedure: as §3
as §2, with “The” for “Phosphatidyl serine exposure was assessed in tumor cells and melanocytes by flow cytometry using APC-Annexin V and propidium iodide (PI; BD Pharmingen, San Diego, CA) as previously described. Each analysis was performed utilizing at least 10,000 events. We considered the Annexin V positive cells (early apoptosis) and Annexin V/PI double positive cells (late apoptosis) cells as the apoptotic cell population. The”

[8] = test system: human A375 melanoma xenografts; assay: Subcutaneous melanoma xenograft tumor growth; assay type: in vivo, NOD/SCID mice; details: oral gavage three times weekly, KPT-276 75 mg/kg or KPT-330 15 mg/kg, p<0.0001 for both
Procedure: as §3
as §2, with “The” for “Phosphatidyl serine exposure was assessed in tumor cells and melanocytes by flow cytometry using APC-Annexin V and propidium iodide (PI; BD Pharmingen, San Diego, CA) as previously described. Each analysis was performed utilizing at least 10,000 events. We considered the Annexin V positive cells (early apoptosis) and Annexin V/PI double positive cells (late apoptosis) cells as the apoptotic cell population. The”

[9] = test system: A375 and CHL-1 cell lines; assay: Immunoblot of TP53, CDKN1A after etoposide; assay type: cell-based, human; details: 20 µM etoposide, 24 hours
Procedure: Human melanoma cell lines were seeded in 6-well plates (2×10^5) and allowed to adhere overnight. After treatment for various time points, the cells were harvested then fractionated using NE-PER Nuclear and Cytoplasmic Extraction Reagents from Thermo Scientific following the manufacturer's protocol. Nuclear and cytoplasmic fractions were validated via immunoblot analysis using Lamin B and GAPDH antibodies.
Immunoblots were prepared as previously described and probed with antibodies specific for TP53, CDKN1A (p21), XPO1, HDM2 (MDM2), Lamin B (Santa Cruz Biotechnology, Santa Cruz, CA), pMAPK, PARP (Cell Signaling Technology), GAPDH or β-actin (Sigma). Following incubation with the appropriate horseradish peroxidase-conjugated secondary antibody, immune complexes were detected using the ECL Plus detection kit (Amersham Biosciences, Ayesbury, UK).
Supplementary file pone.0102983.s001.tif: Figure S1 Localization of TP53, CDKN1A, and pMAPK in melanoma cell lines with etoposide. A375 and CHL-1 cell lines were treated with 20 µM of etoposide and harvested after 24 hours of treatment. Lysates were evaluated via immunoblot analysis. Lamin B and GAPDH serve as loading controls for nuclear and cytoplasmic compartments respectively. The data shown are representative of 2 to 3 independent biological experiments. (TIF) Click here for additional data file.

IC50 (A375 [3]) [µM]	IC50 (CHL-1 [4]) [µM]	IC50 (A375 [5]) [µM]	Compound	Bioavailability [1] [%]	Level at Tmax [1]	Tmax [1] [min]	IC57 value (cytostatic effect) (CHL-1 [2]; CHL-1, 72 hours) [µM]	Ki67 staining (CHL-1 xenografts)	TP53 expression (IHC) (CHL-1 xenografts; high basal expression)	Ki67 staining (A375 xenografts)	Levels of nuclear TP53 and pMAPK (IHC) (A375 xenografts; n = 3 vs 2)	Body weights of mice during treatment [6]	Tumor growth vs diluent [7]	Tumor growth vs diluent [8]	IC50 (CHL-1 [2]; Homo sapiens, CHL-1, 72 hr treatment, read-out: Growth Inhibition IC50) [µM]	TP53 upregulation and downstream activation of CDKN1A [9]
0.321	6.13	0.233	O=C(/C=C\n1cnc(-c2cc(C(F)(F)F)cc(C(F)(F)F)c2)n1)N1CC(F)(F)C1 [KPT-276]	> 90	roughly 2.5 micromolar	60	3.8794	No significant changes	did not change	No significant changes	trend towards increased levels	remained constant	significantly inhibited growth	significantly inhibited growth		
0.12	7.69	0.112	O=C(/C=C\n1cnc(-c2cc(C(F)(F)F)cc(C(F)(F)F)c2)n1)NNc1cnccn1 [KPT-330]	~60	roughly 2.5 micromolar	30						remained constant	significantly inhibited	significantly inhibited	7.53	
			COc1cc([C@@H]2c3cc4c(cc3[C@@H](O[C@@H]3O[C@@H]5CO[C@@H](C)O[C@H]5[C@H](O)[C@H]3O)[C@H]3COC(=O)[C@H]23)OCO4)cc(OC)c1O [etoposide, Etoposide]													induced TP53 upregulation
